Source: paper PMC11933534, “Favipiravir induces HuNoV viral mutagenesis and infectivity loss with clinical improvement in immunocompromised patients” (Clinical Immunology (Orlando, Fla.), 2024)
Like-named read-outs stand apart in the source and are kept apart here.

Tests used:
HuNoV [1] = experiment: Infectivity of P1 stool-sample HuNoV in zebrafish larvae (fold increase, ID50); format: in vivo
Experimental: Human stool samples, positive for HuNoV, were obtained from the Great Ormond Street Hospital for Children (United Kingdom) and the University Hospital of Leuven (Belgium). An aliquot of 100 mg of each stool sample was re-suspended in 1 mL of sterile PBS, thoroughly vortexed, and centrifuged (5 min, 1000 g), supernatant was harvested and stored at −80 °C. This virus suspension was used for RNA extractions, quantification by RT-qPCR and injections in the zebrafish larvae. HuNoV RNA was extracted from 100 μL of PBS suspension using the Direct-zol RNA kit (Zymo Research, Irvine, CA, USA), according to the manufacturer's protocol. The original concentrations of the stool samples were as followed: SS A: 5.52*10^9 copies/g stool, SS B: 1.34*10^11 copies/g stool, SS C: 2.07*10^11 copies/g stool, SS D: 3.07*10^10 copies/g stool, SS E: 1.23*10^12 copies/g stool, SS F: 3.12*10^11 copies/g stool and GII.4 Sydney[P16] (in house collection KU Leuven): 1.46*10^10 copies/g stool.
(§1) Zebrafish larvae were anesthetized and positioned as described previously, in short: zebrafish larvae of 3 days post fertilization were anesthetized and transferred to an agarose mold to position them on their dorsal side with the yolk facing upward. In every experiment, the injection needle was calibrated to ensure the precision of the injection volume. Microinjection was performed using an M3301R Manual Micromanipulator (WPI, Friedberg, Germany) and a FemtoJet 4i pressure microinjector (Eppendorf, Hamburg, Germany). Compound-treated zebrafish larvae received a 1 nL (1.5 nL in case of the combination treatment) injection of compound in the pericardial cavity, while negative control zebrafish were injected with an equal volume of DMSO. Subsequently, the zebrafish larvae received an injection of 3 nL virus in the yolk. After both injections, zebrafish larvae were transferred to 6-well plates with Danieau's solution and further maintained in an incubator with a 14/10 h light/dark cycle at 32 °C.
(§2) Zebrafish larvae were homogenized (Precellys 24, Bertin Technologies, Montigny-le-Bretonneux, France), the homogenates were cleared by centrifugation (5 min, 9000 g), and RNA was extracted using the Direct-zol RNA kit (Zymo Research, Irvine, CA, USA), according to the manufacturer's protocol. RNA levels were quantified with a one-step RT-qPCR (iTaq Universal Probes One-Step Kit, Bio-Rad, Hercules, CA, USA) as previously described.
To start, all stool samples were brought to the same theoretical inoculum (± 1000 viral RNA copies/3 nL injection volume) by dilution with PBS. To compare the viral infectivity between different stool samples, multiple methods were used; A) calculating the fold increase by taking the input based on the viral load of P1's stool samples and the amount of viral RNA copies/zebrafish at the peak of replication into account which are both quantified by RT-qPCR and B) determining the 50% infectious dose for each stool sample based on a well-established method adapted to the zebrafish replication model by diluting the collected stool samples to evaluate at which dilution the infectivity is lost.

HuNoV GII.4 Sydney[P16] = experiment: Antiviral treatment of HuNoV-infected zebrafish larvae (viral RNA by RT-qPCR); format: in vivo; details: for Reduction in viral load with post-treatment sample: favipiravir 25 ng, inoculum P1 SS F carrying RdRp A44S change
Experimental: (§3) First, compounds were dissolved in 100% DMSO (spectroscopy grade). To determine the correct dose for pericardial injections in zebrafish larvae of all compounds (i.e. favipiravir, tizoxanide and their 1:1 combination), a weight-dependent conversion was applied. For this purpose, the optimized and increased clinical dose of 400 mg favipiravir TDS and 200 mg tizoxanide BD was used. To ensure the weight-converted dose was not toxic for zebrafish larvae of 3 days post fertilization, a toxicity analysis was performed. […] The following parameters were investigated: touch response, morphology, posture, oedema, signs of necrosis, swim bladder and heartbeat.
as §1, §2

HuNoV [2] = system: HuNoV; design: method as in PMID 30485769; details: P2 (CVID); favipiravir 1200 mg 12-hourly, three courses; cited from earlier work
[3] = design: method as in PMID 30485769; details: P2; favipiravir 1200 mg 12-hourly; caused treatment interruptions; cited from earlier work
zebrafish larvae = experiment: Toxicity analysis in zebrafish larvae; format: in vivo; details: 25 ng favipiravir or 4 ng tizoxanide, drug administered alone
Experimental: as §3

HuNoV [4] = experiment: Clinical response of immunocompromised patients with chronic HuNoV infection; format: in vivo, human
Experimental: The Drugs and Therapeutics Committees at Great Ormond Street Hospital for Children, Great North Children's Hospital and Royal Free London NHS Trust approved treatment with favipiravir +/− nitazoxanide in four immunocompromised patients with life-threatening/severe chronic HuNoV infections. After obtaining informed consent, microbiological and pharmacological monitoring was performed. Informed consent was also obtained for microbiological monitoring in 2 untreated patients with HuNoV infections. Residual diagnostic viral samples were released for whole-genome sequencing through the UCL/UCLH Pathogen Biobank National Research Ethics Service Committee London Fulham (reference: [12]/LO/1089). For P1 specifically, residual stool samples were released for in vivo infectivity evaluation in the zebrafish model with research ethics approval from London Bloomsbury Research Ethics Committee (reference: 07/Q0508/43). This allows the use of pseudonymised residual diagnostic samples for research. An additional stool sample positive for HuNoV from the existing collection of samples of the University Hospital of Leuven (Belgium) was used (reference: G-2021–4376). Informed consent was obtained from the patient. […]

[5] = Adverse events during off-label treatment of patients; format: in vivo, human
HuNoV [6] = system: HuNoV; design: method as in PMID 30485769; details: P2; favipiravir 1200 mg 12-hourly, three courses; cited from earlier work

NC(=O)c1nc(F)c[nH]c1=O [favipiravir]
Fold increase in viral RNA, 0 to 2 dpi (HuNoV [1]; P1 SS B, 2 days into favipiravir treatment (after 10 days ribavirin), ~1000 genome copies, pre-treatment SS A 321 ± 177): 143 ± 76 fold | 50% infectious dose (ID50) (HuNoV [1]; P1 SS B, 2 days into treatment, pre-treatment SS A 289): 697 viral RNA copies/zebrafish | Fold increase in viral RNA, 0 to 2 dpi (HuNoV [1]; P1 SS C, 125 days into favipiravir treatment, ~1000 genome copies, pre-treatment SS A 321 ± 177): 53 ± 31 fold | 50% infectious dose (ID50) (HuNoV [1]; P1 SS C, 125 days into treatment, pre-treatment SS A 289): 461 viral RNA copies/zebrafish | 50% infectious dose (ID50) (HuNoV [1]; P1 SS D, after a 2-month treatment gap): 338 viral RNA copies/zebrafish | Fold increase in viral RNA, 0 to 2 dpi (HuNoV [1]; P1 SS D, after a treatment gap of 2 months, ~1000 genome copies): 177 ± 55 fold | Fold increase in viral RNA, 0 to 2 dpi (HuNoV [1]; P1 SS E, 6 months after re-introduction at higher favipiravir dose): 75 ± 21 fold | 50% infectious dose (ID50) (HuNoV [1]; P1 SS E, after treatment reintroduction (higher dose)): 880 viral RNA copies/zebrafish | Fold increase in viral RNA, 0 to 2 dpi (HuNoV [1]; P1 SS F, 7 months after re-introduction at higher favipiravir dose): 47 ± 16 fold | 50% infectious dose (ID50) (HuNoV [1]; P1 SS F, after treatment reintroduction (higher dose)): 1110 viral RNA copies/zebrafish | Increase in the 50% infectious dose in HuNoV shed during treatment (HuNoV [1]; P1 stool samples over one year of treatment): ~1 log10 | Reduction in viral RNA copies/zebrafish (HuNoV GII.4 Sydney[P16]; favipiravir 25 ng single pericardial injection, inoculum P1 pre-treatment SS A, day 3 pi (peak), p = 0.0263): 1.6 log10 | Reduction in viral load with post-treatment sample (HuNoV GII.4 Sydney[P16]): no reduction in viral load | Reduction in viral load with post-treatment sample (HuNoV GII.4 Sydney[P16]; listed as Favipiravir): cannot reduce | Reduction of HuNoV replication (HuNoV GII.4 Sydney[P16]; monotherapy favipiravir 25 ng or tizoxanide 4 ng, in-house GII.4 Sydney[P16] stool sample, peak 2 dpi, p = 0.0006 and 0.001): > 1 log10 | Clinical response (HuNoV [2]): Weight gain, reduced stool output, decreased adjunctive loperamide | Adverse event [3]: recurring transaminitis of undetermined aetiology | Toxicity in the zebrafish larval model (zebrafish larvae): did not show toxicity | Clinical response (HuNoV [4]; P3 (CID), favipiravir monotherapy): Weight gain, reduced stool output, improved enteral feeding | Patient weight after treatment (HuNoV [4]; P3, second course up to 12-hourly 800 mg, four months, from 28.9 kg): 33.3 kg | Adverse event ([5]; P1, favipiravir 200 mg 8-hourly + nitazoxanide 200 mg 12-hourly, suspected to be drug-induced, several medications discontinued): conjugated hyperbilirubinaemia | Recurrence of conjugated hyperbilirubinaemia ([5]; P1, restarted favipiravir 400 mg 8-hourly + nitazoxanide 200 mg 12-hourly): did not recur | Adverse event ([5]; P3, favipiravir 12-hourly 400 mg increased to 800 mg, transaminitis did not recur): nail discolouration and frequent headaches | Adverse event ([5]; P3, favipiravir 12-hourly 1200 mg, discontinued after one month): progressing transaminitis | Adverse event ([5]; P4, after 2 months of favipiravir 400 mg 8-hourly + nitazoxanide, nail discolouration reversed after discontinuation): nail discolouration and intermittent jaundice | Change in stool HuNoV viral load (HuNoV [6]): modest decrease in HuNoV VLs, but not viral clearance
